From patent publication US12662469B2 (SIRONAX LTD, priority 2018, dated 2026)
Where two headings read alike, the source gives them in different places.

How the values were obtained:
Cell Necrosis = assay: Cell necrosis assay / cell viability assay (necrosis inhibitor activity); format: cell-based
Human RIP1 kinase = target: T1, Human RIP1 kinase (Homo sapiens, UniProt Q13546); assay: Human RIP1 kinase assay; format: biochemical; settings: representative, exemplary data
T1 sequence (Q13546 1-671): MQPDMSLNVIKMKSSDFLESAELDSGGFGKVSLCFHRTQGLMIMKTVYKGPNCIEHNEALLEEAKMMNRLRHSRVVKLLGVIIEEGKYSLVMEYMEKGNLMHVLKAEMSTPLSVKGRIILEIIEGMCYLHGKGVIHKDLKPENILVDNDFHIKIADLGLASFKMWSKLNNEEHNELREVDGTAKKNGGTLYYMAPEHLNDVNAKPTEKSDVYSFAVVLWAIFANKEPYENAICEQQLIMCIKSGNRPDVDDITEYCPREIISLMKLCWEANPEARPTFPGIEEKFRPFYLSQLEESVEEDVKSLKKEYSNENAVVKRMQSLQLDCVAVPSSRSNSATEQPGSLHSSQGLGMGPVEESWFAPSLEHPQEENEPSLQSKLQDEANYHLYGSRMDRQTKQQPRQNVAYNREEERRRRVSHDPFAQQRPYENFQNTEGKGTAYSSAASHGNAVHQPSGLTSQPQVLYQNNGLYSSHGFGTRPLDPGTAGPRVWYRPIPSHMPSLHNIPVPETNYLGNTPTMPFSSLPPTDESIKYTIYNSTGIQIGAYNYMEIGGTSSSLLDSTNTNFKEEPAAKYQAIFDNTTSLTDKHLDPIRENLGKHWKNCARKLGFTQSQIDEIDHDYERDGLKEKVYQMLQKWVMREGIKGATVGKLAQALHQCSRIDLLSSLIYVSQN

[1] = necrosis inhibitor activity, EC data for 14-191 extrapolated, read-out: EC50
[2] = representative, exemplary data, read-out: Cell viability assay, EC50
[3] = necrosis inhibitor activity, compounds outside 14-191, read-out: EC50

| Compound | EC50 (Cell Necrosis; [1]) | EC50 (Cell Necrosis; [2]) | IC50 (Human RIP1 kinase) | EC50 (Cell Necrosis; [3]) |
| --- | --- | --- | --- | --- |
| NC(=O)c1csc(OC2CN(C(=O)N3N=CCC3c3cc(F)cc(F)c3)C2)n1 (stereo not shown) [Compound 132, 2-((1-(5-(3,5-difluorophenyl)-4,5-dihydro-1H-pyrazole-1-carbonyl)azetidin-3-yl)oxy)thiazole-4-carboxamide] | 1 to 1000 nM | 1 to 100 nM | < 100 nM |  |
| O=C(NC1Cc2ccccc2C1)N1N=CCC1c1ccccc1 (stereo not shown) [Compound 14, N-(2,3-dihydro-H-inden-2-yl)-5-phenyl-4,5-dihydro-1H-pyrazole-1-carboxamide] | 1 to 1000 nM | 1 to 1000 nM | 100 to 1000 nM |  |
| O=C(N1CC(Oc2ccc(F)cc2F)C1)N1N=CCC1c1cc(F)cc(F)c1 (stereo not shown) [Compound 76, (3-(2,4-difluorophenoxy)azetidin-1-yl)(5-(3,5-difluorophenyl)-4,5-dihydro-1H-pyrazol-1-yl)methanone] | 1 to 1000 nM | 1 to 100 nM | < 100 nM |  |
| O=C(N1CC(Cc2cccc(F)c2)C1)N1N=CCC1c1ccccc1 (stereo not shown) [Compound 41, (3-(3-fluorobenzyl)azetidin-1-yl)(5-phenyl-4,5-dihydro-1H-pyrazol-1-yl)methanone] | 1 to 1000 nM | 1 to 100 nM | < 100 nM |  |
| O=C(N1CC(Oc2ccc(F)cc2F)C1)N1OCC[C@H]1c1ccccc1 [Compound 80, (S)-(3-(2,4-difluorophenoxy)azetidin-1-yl)(3-phenylisoxazolidin-2-yl)methanone] | 1 to 1000 nM | 1 to 100 nM | < 100 nM |  |
| O=C(N1CC[C@@H](Oc2ccccc2)C1)N1N=CCC1c1ccccc1 (single isomer, unassigned) [Compound 26B] | 1000 to 10000 nM | > 1000 nM | > 1000 nM |  |
| O=C(N1CCC1)N1N=CCC1c1ccccc1 (stereo not shown) [Compound 1, azetidin-1-yl(5-phenyl-4,5-dihydro-1H-pyrazol-1-yl)methanone] |  | 1 to 10000 nM | ~1000 nM | 1000 to 10000 nM |
| O=C(N1CC[C@@H](Oc2ccccc2)C1)N1N=CCC1c1ccccc1 (single isomer, unassigned) [Compound 26A] | 1 to 1000 nM | 1 to 1000 nM | < 100 nM |  |
| O=C(N1CC(Oc2ccc(F)cc2)C1)N1N=CCC1c1ccccc1 (stereo not shown) [Compound 62, (3-(4-fluorophenoxy)azetidin-1-yl)(5-phenyl-4,5-dihydro-1H-pyrazol-1-yl)methanone] | 1 to 1000 nM |  |  |  |
| O=C(CC1CCCC1)Nc1nc(N2CCN(C(=O)N3N=CC[C@H]3c3cc(F)cc(F)c3)CC2)ncc1F [Compound 290] |  |  |  | 1 to 1000 nM |
| O=C(N1CC(=Cc2c(F)cc(F)cc2F)C1)N1N=CCC1c1cc(F)cc(F)c1 (stereo not shown) [Compound 304, (5-(3,5-difluorophenyl)-4,5-dihydro-1H-pyrazol-1-yl)(3-(2,4,6-trifluorobenzylidene)azetidin-1-yl)methanone] |  |  |  | 1 to 1000 nM |
| O=C(N1CC(Cc2ccccc2)C1)N1N=CCC1c1ccccc1 (stereo not shown) [Compound 16, (3-benzylazetidin-1-yl)(5-phenyl-4,5-dihydro-1H-pyrazol-1-yl)methanone] | 1 to 1000 nM |  |  |  |
| O=C(N1CC[C@@H](Oc2cccc(Cl)c2)C1)N1N=CCC1c1ccccc1 (stereo partly drawn) [Compound 35, ((R)-3-(3-chlorophenoxy)pyrrolidin-1-yl)(5-phenyl-4,5-dihydro-1H-pyrazol-1-yl)methanone] | 1000 to 10000 nM |  |  | 1 to 1000 nM |
| O=C(N1CC(=Cc2cc3[nH]nc(Cl)c3cc2F)C1)N1N=CC[C@H]1c1cc(F)cc(F)c1 [Compound 285, (S)-(3-((3-chloro-5-fluoro-1H-indazol-6-yl)methylene)azetidin-1-yl)(5-(3,5-difluorophenyl)-4,5-dihydro-1H-pyrazol-1-yl)methanone] |  |  |  | 1 to 1000 nM |
| N#Cc1ccc(OC2CN(C(=O)N3N=CCC3c3cc(F)cc(F)c3)C2)c(F)c1 (stereo not shown) [Compound 136, 4-((1-(5-(3,5-difluorophenyl)-4,5-dihydro-1H-pyrazole-1-carbonyl)azetidin-3-yl)oxy)-3-fluorobenzonitrile] | 1 to 1000 nM |  |  |  |
| C[C@@H]1CN(c2ncc(F)cn2)C[C@H](C)N1C(=O)N1OCC[C@H]1c1ccccc1 [Compound 110, ((2R,6S)-4-(5-fluoropyrimidin-2-yl)-2,6-dimethylpiperazin-1-yl)((S)-3-phenylisoxazolidin-2-yl)methanone] | 1 to 1000 nM |  |  |  |
| N#Cc1cccc(N2CCN(C(=O)N3N=CC[C@H]3c3cc(F)cc(F)c3)CC2)n1 [Compound 233, (S)-6-(4-(5-(3,5-difluorophenyl)-4,5-dihydro-1H-pyrazol-1-carbonyl)piperazin-1-yl)picolinonitrile] |  |  |  | 1 to 1000 nM |
| NCC#Cc1ccnc(N2CCN(C(=O)N3N=CCC3c3cc(F)cc(F)c3)CC2)n1 (stereo not shown) [Compound 382, (4-(4-(3-aminoprop-1-yn-1-yl)pyrimidin-2-yl)piperazin-1-yl)(5-(3,5-difluorophenyl)-4,5-dihydro-1H-pyrazol-1-yl)methanone frifluoroacetate] |  |  |  | 1 to 1000 nM |
| O=C(N1CC(Oc2ccc(OCc3ccccc3)nc2)C1)N1N=CCC1c1cc(F)cc(F)c1 (stereo not shown) [Compound 211, (3-((6-(benzyloxy)pyridin-3-yl)oxy)azetidin-1-yl)(5-(3,5-difluorophenyl)-4,5-dihydro-1H-pyrazol-1-yl)methanone] |  |  |  | 1 to 1000 nM |
| COc1cccc(O[C@@H]2CCN(C(=O)N3N=CC[C@H]3c3cc(F)cc(F)c3)C2)n1 [Compound 356, ((S)-5-(3,5-difluorophenyl)-4,5-dihydro-1H-pyrazol-1-yl)((R)-3-((6-methoxypyridin-2-yl)oxy)pyrrolidin-1-yl)methanone] |  |  |  | 1 to 1000 nM |
